The values that follow come from publication PMC6834594, “Structure and regulation of ZCCHC4 in m^6A-methylation of 28S rRNA” (Nature Communications, 2019).

Where a chain is given by its changes, count along the chain named.

In one series the target is T1, ZCCHC4_24-464 (Homo sapiens, UniProt Q9H5U6, K55A/E56A/E57A/K167A/K168A).
T1 construct: gene ZCCHC4; core fragment, residues 24-464, five surface mutations for crystallization; His6-SUMO tag cleaved by ULP1; E. coli BL21(DE3) RIL
T1 sequence (Q9H5U6 24-464 K55A/E56A/E57A/K167A/K168A): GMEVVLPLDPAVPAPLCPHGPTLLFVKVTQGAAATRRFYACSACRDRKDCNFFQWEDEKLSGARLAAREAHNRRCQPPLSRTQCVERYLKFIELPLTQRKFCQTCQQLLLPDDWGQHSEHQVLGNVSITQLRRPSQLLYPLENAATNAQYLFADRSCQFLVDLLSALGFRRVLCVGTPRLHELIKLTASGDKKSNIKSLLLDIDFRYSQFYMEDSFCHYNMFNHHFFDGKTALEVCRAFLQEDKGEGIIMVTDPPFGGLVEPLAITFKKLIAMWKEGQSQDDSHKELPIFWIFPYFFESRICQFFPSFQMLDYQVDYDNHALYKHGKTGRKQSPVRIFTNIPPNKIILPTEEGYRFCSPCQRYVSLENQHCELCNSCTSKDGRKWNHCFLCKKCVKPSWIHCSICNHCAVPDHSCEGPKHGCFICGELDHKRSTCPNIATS
As to the kind of experiment: X-ray crystal structure, […] Å. In kind it is binding. To be noted: cofactor pocket of the MTase domain; no RNA.

The target of series [1] is T2, ZCCHC4_24-513 (Homo sapiens, UniProt Q9H5U6).
T2 construct: gene ZCCHC4; residues 24-513; His6-SUMO tag cleaved by ULP1; E. coli BL21(DE3) RIL; monomer in solution
T2 sequence (Q9H5U6 24-513): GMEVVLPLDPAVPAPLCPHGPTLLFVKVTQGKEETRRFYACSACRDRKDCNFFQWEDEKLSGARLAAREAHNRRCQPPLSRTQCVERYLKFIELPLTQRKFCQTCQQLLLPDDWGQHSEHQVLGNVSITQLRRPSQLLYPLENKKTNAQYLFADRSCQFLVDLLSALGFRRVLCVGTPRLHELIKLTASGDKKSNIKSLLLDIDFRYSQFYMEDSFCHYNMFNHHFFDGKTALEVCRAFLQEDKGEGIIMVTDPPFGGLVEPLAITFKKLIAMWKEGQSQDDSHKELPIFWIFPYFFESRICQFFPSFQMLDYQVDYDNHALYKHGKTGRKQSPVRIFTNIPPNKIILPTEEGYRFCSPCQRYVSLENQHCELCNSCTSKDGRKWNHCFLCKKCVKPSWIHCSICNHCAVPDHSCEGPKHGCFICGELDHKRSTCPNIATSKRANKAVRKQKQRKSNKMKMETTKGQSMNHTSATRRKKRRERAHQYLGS
As to the kind of experiment: isothermal titration calorimetry. The format is binding. For orientation: Isothermal titration calorimetry measures the heat released or taken up as one component is titrated into another.

The target in series [2] is T3, ZCCHC4_24-513 (Homo sapiens, UniProt Q9H5U6, H343A).
T3 construct: gene ZCCHC4; residues 24-513; His6-SUMO tag cleaved by ULP1; E. coli BL21(DE3) RIL; monomer in solution
T3 sequence (Q9H5U6 24-513 H343A): T2 sequence (Q9H5U6 24-513) with H320A
As to the kind of experiment: isothermal titration calorimetry. In kind it is binding.

In the next series the target is T4, ZCCHC4 24-464 WT (core) (human, UniProt Q9H5U6 24-464).
T4 sequence: T1 sequence (Q9H5U6 24-464 K55A/E56A/E57A/K167A/K168A) with A32K, A33E, A34E, A144K, A145K
Put plainly: EMSA; EMSA: 20 mM Tris-HCl pH 7.5, 100 mM NaCl, 5% glycerol, 1 mM DTT, 4 C, 1 h; 0.3 uM RNA with 0-1.2 uM protein unless noted; 6% TBE native gel. The note with it: protein: recombinant; tags: His6-SUMO removed by ULP1; label: none (SYBR Gold stain); stem-loop with tail. For orientation: In EMSA bound probe runs differently from free probe, usually more slowly.

`Nc1ncnc2c1ncn2[C@@H]1O[C@H](CSCC[C@H](N)C(=O)O)[C@@H](O)[C@H]1O` [SAH]: the “X-ray crystal structure, 3.1 Å” value at ZCCHC4_24-464 is given as “in complex with S-adenosyl-L-homocysteine (SAH)”.
`C[S+](CC[C@H](N)C(=O)O)C[C@H]1O[C@@H](n2cnc3c(N)ncnc32)[C@H](O)[C@@H]1O` (stereo partly shown) [SAM]: the Kd – broadly, the equilibrium constant for the complex coming apart – came to 6.7 µM on ZCCHC4_24-513 [1] and 1.6 µM on ZCCHC4_24-513 [2].
For CGGUACACCUGUCAAACGGUAACGCAGGUG (structured_RNA) [30-mer 28S rRNA], the binding result with ZCCHC4 24-464 WT (core) is recorded as “binds”.
